Measured values: patent US20250320213A1, “Nitrogen-Containing Heterocyclic Compounds” (Pfizer Inc., priority 2024, published 2025)
Where two headings read alike, the source gives them in different places.

Tests used:
[1] = test system: CCL17 secretion in peripheral human whole blood; assay: Human Whole Blood (HWB) CCL17 TR-FRET Assay (IL-13 stimulated CCL17 secretion); assay type: cell-based
In short: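 IC50 comes from serum CCL17 measured by a TR-FRET sandwich assay (16 h at room temperature, 665/615 nm ratio). Beforehand, blood in sodium heparin was exposed to an 11-point, 3-fold compound series for 2 h at 37°C and then to 10 ng/mL IL-13 for 48 h.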

STAT6 = target: T1, STAT6 (Homo sapiens, UniProt P42226); assay: STAT6 Reporter Luciferase Assay (IL-13 stimulated HaCaT keratinocyte NanoLuc reporter cells); assay type: cell-based; settings: read-out: Reporter EC50
T1 construct: stably transfected HaCaT keratinocyte cell line, which expresses NanoLuc luciferase reporter gene under the transcriptional control of the STAT6 responsive promoter; endogenous in cells; host or cells: HaCaT keratinocyte reporter cell line (stably transfected with a NanoLuc reporter)
T1 sequence (P42226 1-847): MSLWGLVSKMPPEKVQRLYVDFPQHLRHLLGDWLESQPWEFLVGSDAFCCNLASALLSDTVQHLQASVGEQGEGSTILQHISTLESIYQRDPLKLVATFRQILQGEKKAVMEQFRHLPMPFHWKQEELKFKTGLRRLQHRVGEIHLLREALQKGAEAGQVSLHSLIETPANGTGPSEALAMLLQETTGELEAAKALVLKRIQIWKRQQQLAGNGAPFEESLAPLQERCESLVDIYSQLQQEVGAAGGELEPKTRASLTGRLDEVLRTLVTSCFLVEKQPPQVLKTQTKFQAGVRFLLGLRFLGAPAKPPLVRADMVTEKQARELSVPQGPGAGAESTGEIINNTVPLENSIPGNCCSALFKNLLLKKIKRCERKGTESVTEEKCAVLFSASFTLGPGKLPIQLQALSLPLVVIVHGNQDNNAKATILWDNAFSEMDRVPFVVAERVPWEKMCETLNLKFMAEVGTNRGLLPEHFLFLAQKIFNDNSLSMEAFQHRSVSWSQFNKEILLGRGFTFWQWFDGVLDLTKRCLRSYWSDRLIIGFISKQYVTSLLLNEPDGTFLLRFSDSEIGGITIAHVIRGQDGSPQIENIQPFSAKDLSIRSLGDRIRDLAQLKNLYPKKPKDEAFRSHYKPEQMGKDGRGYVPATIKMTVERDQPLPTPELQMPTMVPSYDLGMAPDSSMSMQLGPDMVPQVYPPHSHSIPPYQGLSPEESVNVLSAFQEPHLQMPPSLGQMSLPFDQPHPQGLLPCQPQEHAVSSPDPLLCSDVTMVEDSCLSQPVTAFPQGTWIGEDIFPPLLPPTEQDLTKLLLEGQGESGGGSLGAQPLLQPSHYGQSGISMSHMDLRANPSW
In short: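 Cells were plated overnight, washed, exposed to compound for two hours, stimulated with IL-13 (0.12 nM final) for four hours at 37 °C, and then lysed with Nano-Glo substrate for 15 min before luminescence reading.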

[2] = Homo sapiens, 48 h, human whole blood, IL-13 stimulated
[3] = IL-13 stimulated HaCaT STAT6 NanoLuc reporter cells
[4] = Homo sapiens, 48 h, inhibition of CCL17 secretion in human whole blood, 10 ng/mL IL13, 48 hours
[5] = STAT6 NanoLuc luciferase reporter, IL-13 stimulated HaCaT keratinocyte cells
[6] = Homo sapiens, 48 h, human whole blood, 10 ng/mL IL13, 48 hours
[7] = human whole blood, IL-13 stimulated, 48 hours

| Structure (SMILES) | IC50 [1, 2] [nM] | EC50 (STAT6; [3]) [nM] | IC50 [1, 4] [nM] | EC50 (STAT6; [5]) [nM] | also measured |
| --- | --- | --- | --- | --- | --- |
| CCC1Cc2c(c(C(=O)NCc3ccc(NC(=O)N(C)C)cc3)nn2C(C)C)CN1c1ccc(C(=O)N(C)C)cn1 (racemic) [Example 249, rac-(R)-5-(5-(dimethylcarbamoyl)pyridin-2-yl)-N-(4-(3,3-dimethylureido)benzyl)-6-ethyl-1-isopropyl-4,5,6,7-tetrahydro-1H-pyrazolo[4,3-c]pyridine-3-carboxamide] | 31 | 6 |  |  |  |
| CN(C)C(=O)Nc1ccc(CNC(=O)c2nn(C)c3c2[C@@H]2COC[C@H](C3)N2c2ccc(C(=O)N(C)C)cn2)cc1 (racemic) [Example 72, rac-(4R,8S)-10-(5-(dimethylcarbamoyl)pyridin-2-yl)-N-(4-(3,3-dimethylureido)benzyl)-1-methyl-1,4,5,7,8,9-hexahydro-4,8-epiminooxocino[5,4-c]pyrazole-3-carboxamide] |  |  | 1100 | 308 |  |
| CC(C)n1nc(C(=O)NCc2ccc(-c3cccc(=O)[nH]3)cc2)c2c1CCN(c1ccc(C(=O)N(C)C)cn1)C2 [Example 44, 5-(5-(dimethylcarbamoyl)pyridin-2-yl)-1-isopropyl-N-(4-(6-oxo-1,6-dihydropyridin-2-yl)benzyl)-4,5,6,7-tetrahydro-1H-pyrazolo[4,3-c]pyridine-3-carboxamide] |  |  | 5400 | 503 |  |
| CCn1nc(C(=O)NCc2ccc(-c3ncc[nH]3)cc2)c2c1[C@@H](C)CN(c1ncc(C(=O)N(C)C)cn1)C2 [Example 301, (S)-N-(4-(1H-imidazol-2-yl)benzyl)-5-(5-(dimethylcarbamoyl)pyrimidin-2-yl)-1-ethyl-7-methyl-4,5,6,7-tetrahydro-1H-pyrazolo[4,3-c]pyridine-3-carboxamide] | 8 | 1 |  |  |  |
| C[C@@H]1Cc2c(c(C(=O)NCc3ccc(NC(=O)N(C)C)cc3)nn2C)CN1c1ccc(-c2nccn2C)cn1 (single isomer, unassigned) [Example 122] |  |  | 900 | 24 |  |
| CC(C)n1nc(C(=O)NCc2ccc(NC(=O)N(C)C)cc2)c2c1[C@H](C)CN(c1ccc(C(=O)N(C)C)cn1)C2 (single isomer, unassigned) [Example 112] |  |  | 78 | 15 |  |
| CC(C)n1nc(C(=O)NCc2ccc(NC(=O)N3CCNCC3)cc2F)c2c1[C@@H](C)CN(c1ccc(C(=O)N(C)C)cc1)C2 [Example 589, (S)-5-(4-(dimethylcarbamoyl)phenyl)-N-(2-fluoro-4-(piperazine-1-carboxamido)benzyl)-1-isopropyl-7-methyl-4,5,6,7-tetrahydro-1H-pyrazolo[4,3-c]pyridine-3-carboxamide] |  | 3 |  |  | IC50 [1, 6]: 19 nM |
| CN(C)C(=O)Nc1ccc(CNC(=O)c2nn(CC(C)(C)C)c3c2CN(c2ccc(C(=O)N(C)C)cn2)CC3)cc1 [Example 253, 5-(5-(dimethylcarbamoyl)pyridin-2-yl)-N-(4-(3,3-dimethylureido)benzyl)-1-neopentyl-4,5,6,7-tetrahydro-1H-pyrazolo[4,3-c]pyridine-3-carboxamide] | 126 | 7 |  |  |  |
| CC(C)n1nc(C(=O)NCc2ccc(NC(=O)N(C)C)cc2)c2c1C(C)(C)CN(c1ccc(C(=O)N(C)C)cn1)C2 [Example 247, 5-(5-(dimethylcarbamoyl)pyridin-2-yl)-N-(4-(3,3-dimethylureido)benzyl)-1-isopropyl-7,7-dimethyl-4,5,6,7-tetrahydro-1H-pyrazolo[4,3-c]pyridine-3-carboxamide] | 9 | 1 |  |  |  |
| Cc1ccnn1-c1ccc(N2CCc3c(c(C(=O)NCc4ccc(NC(=O)N(C)C)cc4)nn3C(C)C)C2)nc1 [Example 41, N-(4-(3,3-Dimethylureido)benzyl)-1-isopropyl-5-(5-(5-methyl-1H-pyrazol-1-yl)pyridin-2-yl)-4,5,6,7-tetrahydro-1H-pyrazolo[4,3-c]pyridine-3-carboxamide] |  |  | 93 | 3 |  |
| CN(C)C(=O)Nc1ccc(CNC(=O)c2nn(C)c3c2CN(c2ccc(C(=O)N(C)C)cn2)CC3(C)C)cc1 [Example 105, 5-(5-(dimethylcarbamoyl)pyridin-2-yl)-N-(4-(3,3-dimethylureido)benzyl)-1,7,7-trimethyl-4,5,6,7-tetrahydro-1H-pyrazolo[4,3-c]pyridine-3-carboxamide] |  |  | 21 | 3 |  |
| CC(C)n1nc(C(=O)NCc2ccc(NC(=O)N(C)C)cc2)c2c1CC(C(F)(F)F)N(c1ccc(C(=O)N(C)C)cn1)C2 (single isomer, unassigned) [Example 276, rel-(R or S)-5-(5-(dimethylcarbamoyl)pyridin-2-yl)-N-(4-(3,3-dimethylureido)benzyl)-1-isopropyl-6-(trifluoromethyl)-4,5,6,7-tetrahydro-1H-pyrazolo[4,3-c]pyridine-3-carboxamide] |  | 2 |  |  | IC50 [1, 7]: 28 nM |
| COc1nc(N2CCc3c(c(C(=O)NCc4ccc(NC(=O)N(C)C)cc4)nn3C(C)C)C2)ccc1[C@@]1(C)CCCNC1=O [Example 192, (R)-N-(4-(3,3-dimethylureido)benzyl)-1-isopropyl-5-(6-methoxy-5-(3-methyl-2-oxopiperidin-3-yl)pyridin-2-yl)-4,5,6,7-tetrahydro-1H-pyrazolo[4,3-c]pyridine-3-carboxamide] | 6440 | 1670 |  |  |  |
| Cc1nc(C(=O)NCc2ccc(NC(=O)N(C)C)cc2)c2n1CCN(c1ccc(C(=O)N(C)C)cn1)C2 [Example 5, 7-(5-(Dimethylcarbamoyl)pyridin-2-yl)-N-(4-(3,3-dimethylureido)benzyl)-3-methyl-5,6,7,8-tetrahydroimidazo[1,5-a]pyrazine-1-carboxamide] |  |  |  | 124 | IC50 ([1]; inhibition of CCL17 secretion in human whole blood, 10 ng/mL IL13, 48 hours): 927 nM |
| CNC(=O)c1ccc(CNC(=O)c2nn(C)c3c2CN(c2ccc(C(=O)N(C)C)cn2)CC3)cc1 [Example 15, 5-(5-(dimethylcarbamoyl)pyridin-2-yl)-1-methyl-N-(4-(methylcarbamoyl)benzyl)-4,5,6,7-tetrahydro-1H-pyrazolo[4,3-c]pyridine-3-carboxamide] |  |  | 1160 | 159 |  |
| CC(C)n1nc(C(=O)NCc2ccc(NC(=O)N(C)C)cc2)c2c1C(C(F)(F)F)CN(c1ncc(C(=O)N(C)C)cn1)C2 (single isomer, unassigned) [Example 462, rel-(R or S)-5-(5-(dimethylcarbamoyl)pyrimidin-2-yl)-N-(4-(3,3-dimethylureido)benzyl)-1-isopropyl-7-(trifluoromethyl)-4,5,6,7-tetrahydro-1H-pyrazolo[4,3-c]pyridine-3-carboxamide] |  | 38.7 |  |  | IC50 [1, 7]: 376 nM |
| CC(C)n1nc(C(=O)NCc2ccc(NC(=O)N3CCC3)cc2)c2c1[C@@H](C)CN(c1ccc(C(=O)N(C)C)cn1)C2 [Example 591, (S)-N-(4-(azetidine-1-carboxamido)benzyl)-5-(5-(dimethylcarbamoyl)pyridin-2-yl)-1-isopropyl-7-methyl-4,5,6,7-tetrahydro-1H-pyrazolo[4,3-c]pyridine-3-carboxamide] |  | 1 |  |  | IC50 [1, 6]: 10 nM |
| CCC1CN(c2ccc(C(=O)N(C)C)cn2)Cc2c(C(=O)NCc3ccc(NC(=O)N(C)C)cc3)nc(C)n21 (single isomer, unassigned) [Example 131, rel-(R or S)-7-(5-(dimethylcarbamoyl)pyridin-2-yl)-N-(4-(3,3-dimethylureido)benzyl)-5-ethyl-3-methyl-5,6,7,8-tetrahydroimidazo[1,5-a]pyrazine-1-carboxamide] |  |  | 256 | 103 |  |
| CCOC(=O)Nc1ccc(CNC(=O)c2nn(C(C)C)c3c2CN(c2ccc(C(=O)N(C)C)cn2)C[C@@H]3C)cc1 [Example 497, ethyl (S)-(4-((5-(5-(dimethylcarbamoyl)pyridin-2-yl)-1-isopropyl-7-methyl-4,5,6,7-tetrahydro-1H-pyrazolo[4,3-c]pyridine-3-carboxamido)methyl)phenyl)carbamate] | 16 | 1 |  |  |  |
